PubChem BioAssay (NCI)
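Interpolation was linear, between the two tested concentrations surrounding the appropriate level; five concentrations were tested over 48 hours in 96-well plates. TGI: concentration producing complete growth inhibition.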 Where a SMILES comes first, the peptide text is derived from it. The star is where a group is joined. Bn = c1ccc(C*)cc1

How the values were obtained:
Experiment in all cases: NCI tumour cell line growth inhibition, 48 h
EKVX NSCLC = system: EKVX NSCLC
HOP-62 NSCLC = system: HOP-62 NSCLC
KM12 colon = system: KM12 colon
M14 melanoma = system: M14 melanoma
MDA-MB-435 = system: MDA-MB-435
MDA-N = system: MDA-N
NCI-H460 lung = system: NCI-H460 lung
OVCAR-8 ovarian = system: OVCAR-8 ovarian
T-47D breast = system: T-47D breast
TK-10 renal = system: TK-10 renal

| SMILES | TGI (EKVX NSCLC) [µM] | TGI (HOP-62 NSCLC) [µM] | TGI (KM12 colon) [µM] | TGI (M14 melanoma) [µM] | TGI (MDA-MB-435) [µM] | TGI (MDA-N) [µM] | TGI (NCI-H460 lung) [µM] | TGI (OVCAR-8 ovarian) [µM] | TGI (T-47D breast) [µM] | TGI (TK-10 renal) [µM] |
| --- | --- | --- | --- | --- | --- | --- | --- | --- | --- | --- |
| COc1cc(CNc2nc3cc(C(F)(F)F)ccc3nc2-c2ccccc2)cc(OC)c1OC | 50.2 | > 100 | 53 | > 100 | > 100 | > 100 | > 100 | > 100 | 6.62 | > 100 |
| CC1C(c2ccc3c(c2)OCO3)c2cc3c(cc2OC1N1CCOCC1)OCO3 (stereo not given) | > 100 | 78.6 | 94.2 | 76.9 | 27.6 | 29.1 | > 80.1 | > 100 | > 100 | > 100 |
| COC(=O)C(CC(C)C)NC(=O)C(N)Cc1ccc(OCc2ccccc2)cc1 (stereo not given) (H-Tyr(Bn)-Leu-OMe; configuration not given here) | > 10 | > 10 | > 10 | > 10 | > 10 | > 10 | > 10 | > 10 | > 10 | > 10 |
| C=C1C(=O)OC2/C=C(/C)C3(O)OC(C)(CC(OC(=O)C(C)C)C12)CC3OC(C)=O (stereo not given) | 46.5 | > 100 | 41 | 68 | > 43.8 | 4.94 | 25 | > 100 | > 100 | 24.4 |
| NS(=O)(=O)c1ccc(NC(NC(=O)C(C(F)(F)F)C(F)(F)F)(C(F)(F)F)C(F)(F)F)cc1 | > 100 | > 100 | > 100 | > 100 | > 100 | > 100 | > 100 | > 100 | > 100 | > 100 |
| N#CCCN(CCC#N)c1ccc(/C=C2\SC(=S)NC2=O)cc1Br | > 100 | 40.4 | > 100 | > 100 | > 100 | > 100 | > 100 | > 100 | > 100 | > 100 |
| O=C(CCCN1CCC2(CC1)C(=NC1CCCCC1)NC(=O)N2c1ccccc1)c1ccc(F)cc1 | > 100 | 37.5 | 42.5 | 32.8 | 38.8 | 34.9 | 54.5 | 68.4 | 76.4 | 63.2 |
| Cn1ccnc1Sc1ccc(C=Nc2ccc3nc(SCC(=O)NC4CCCCC4)sc3c2)cc1[N+](=O)[O-] | > 100 | > 100 | > 100 | > 100 | > 100 | > 100 | > 100 | > 100 | > 100 | 32.2 |
| C=C(C)[C@@]1(O[Si](C)(C)C)CCCC[C@@H]1CC(Sc1ccccc1)Sc1ccccc1 | 32.1 | 27.5 | 23.8 | 31.3 | 31.6 | 32.7 | 29.6 | 31.7 | 18.8 | 29 |
| N#CC(=N)c1ncn(-c2ccccc2N)c1N | > 100 | > 100 | > 100 | > 100 | > 100 | > 100 | > 100 | > 100 | > 100 | > 100 |
| COc1c(O)c(O)cc2c1-c1ccc(OC)c(=O)cc1C(NC(C)=O)CC2 (stereo not given) | 98.2 | 87.1 | 33 | > 79 | 3.75 | 4.84 | 50.9 | 62.2 | > 100 | > 100 |
| CC1=C[C@@H](C)C[C@]2(C)CC[C@H](O2)[C@]23CC[C@](C(=O)O)(C[C@H](O2)[C@@H]2O[C@@](C)(CC2=O)[C@@H](O)[C@H]2CC[C@@]4(CCC[C@@H](O4)[C@H](C)C(=O)O[C@H]4C[C@H]([C@]5(O)OCC[C@H](C)[C@@H]5O)O[C@H]4C=C1)O2)O3 | > 10 | > 10 | > 10 | > 10 | > 10 | > 10 | > 10 | > 10 | > 10 | > 10 |
